{"source": "paper PMC6599250", "about": "“Functional diversity of inhibitors tackling the differentiation blockage of MLL-rearranged leukemia” (Journal of Hematology & Oncology, 2019)", "key": {"[1]": {"system": "MLL-fused cell lines (MV4-11, MOLM-13)", "experiment": "Cell proliferation, MLL-fused cell lines", "format": "cell-based", "settings": "4 days of treatment (Fig. 1a), DMSO = 100%", "protocol": "Cells were seeded in the optimal growth medium at 4000–5000 cells/well in a 96 MTP and cultured 18–24 h before inhibitor treatment. Upon treatment with the indicated inhibitor, cells were cultured for 24 h, 96 h, and 168 h and effects on proliferation were determined using alamarBlue Cell Viability Reagent (Thermo Fisher Scientific, Waltham, MA, USA)."}, "[2]": {"biological_target": "MENIN-MLL interaction (Homo sapiens, UniProt O00255)", "sequence (O00255 whole entry)": "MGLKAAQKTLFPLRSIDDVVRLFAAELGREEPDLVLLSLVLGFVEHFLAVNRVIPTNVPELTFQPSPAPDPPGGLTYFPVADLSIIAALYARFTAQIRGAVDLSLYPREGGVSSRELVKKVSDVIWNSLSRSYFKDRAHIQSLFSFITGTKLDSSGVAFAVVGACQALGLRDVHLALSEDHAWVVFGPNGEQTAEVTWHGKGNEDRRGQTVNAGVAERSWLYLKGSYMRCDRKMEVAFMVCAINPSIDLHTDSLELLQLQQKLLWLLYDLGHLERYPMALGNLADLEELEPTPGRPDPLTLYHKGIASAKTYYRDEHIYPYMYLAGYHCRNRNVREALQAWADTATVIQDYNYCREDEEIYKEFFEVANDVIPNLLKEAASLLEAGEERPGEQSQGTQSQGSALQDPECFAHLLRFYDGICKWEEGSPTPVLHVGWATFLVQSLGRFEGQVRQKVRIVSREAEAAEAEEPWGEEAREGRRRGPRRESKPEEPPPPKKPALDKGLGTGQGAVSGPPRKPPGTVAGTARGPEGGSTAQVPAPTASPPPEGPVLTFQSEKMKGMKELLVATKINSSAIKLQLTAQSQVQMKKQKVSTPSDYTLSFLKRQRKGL", "experiment": "On target potency, MENIN-MLL interaction", "format": "biochemical", "source_text": "Table 1 Inhibitors used in this study. Chemical structures of inhibitor used in this study tackling Menin-MLL1 interaction, BRD4/2/3, DOT1L, CDK9, and DHODH active sites, with respective biochemical IC50, rationale and current developmental status | column: BAY-155"}, "[3]": {"system": "MYC, PCNA, and MCL-1 levels", "set-up": "method as in earlier work", "settings": "initial pharmacodynamics data analysis; cited from earlier work"}, "[4]": {"system": "P-TEFb/CDK9", "settings": "read-out: On target Potency IC50; cited from earlier work"}, "[5]": {"system": "AML patients", "settings": "cited from earlier work"}, "[6]": {"system": "BRD4/2/3", "settings": "read-out: On target Potency EC50; cited from earlier work"}}}
{"smiles": "CC(C)N(C[C@H]1O[C@@H](n2cnc3c(N)ncnc32)[C@H](O)[C@@H]1O)[C@H]1C[C@@H](CCc2nc3cc(C(C)(C)C)ccc3[nH]2)C1", "note": "[EPZ-5676]", "values": [{"measurement": "proliferation inhibited to", "setting": "[1]", "value": "40–50%"}]}
{"smiles": "Cc1c(CN2CCC3(CC2)CN(c2ncnc4sc(CC(F)(F)F)cc24)C3)ccc2c1cc(C#N)n2CC(N)=O", "note": "[BAY-155]", "values": [{"measurement": "EC50", "setting": "[2]", "value": 8, "unit": "nM"}]}
{"smiles": "COc1cc(F)ccc1-c1cc(Nc2cc(CS(C)(=N)=O)ccn2)ncc1F", "note": "(stereo not shown) [BAY 1251152]", "values": [{"measurement": "pharmacodynamics in phase I", "setting": "[3]", "value": "dose-dependent reduction of MYC, PCNA, and MCL-1 levels"}, {"measurement": "IC50", "setting": "[4]", "value": 3, "unit": "nM"}]}
{"smiles": "Cc1sc2c(c1C)C(c1ccc(Cl)cc1)=N[C@@H](CC(=O)Nc1ccc(O)cc1)c1nnc(C)n1-2", "note": "[OTX015]", "values": [{"measurement": "clinical activity in AML patients", "setting": "[5]; AML patients harboring diverse driving mutations", "value": "partial blast clearance and recovery of platelets"}, {"measurement": "dose-limiting effect in patients", "setting": "[5]; patients with incomplete bone marrow failure", "value": "severe thrombocytopenia as dose-limiting effect"}, {"measurement": "EC50", "setting": "[6]", "value": "10 to 19", "unit": "nM"}]}
